How the values were obtained:
MDA-MB-231 = assay: cells; details: Homo sapiens, MDA-MB-231, 48 h
Description: Cytotoxicity against human MDA-MB-231 cells assessed as reduction in cell viability incubated for 48 hrs by Hoechst-33342 staining based cell counting method (Rvb > 25 microM)

Huh-7 = assay: cells; details: Homo sapiens, Huh-7, 48 h
Fibroblast = assay: cells; details: Homo sapiens, 48 h
Description: Cytotoxicity against human Fibroblast cells assessed as reduction in cell viability incubated for 48 hrs by Hoechst-33342 staining based cell counting method (Rvb > 25 microM)

Caco-2 = assay: cells; details: Homo sapiens, Caco-2, 48 h
PC-3 = assay: cells; details: Homo sapiens, PC-3, 48 h
Description: Cytotoxicity against human PC-3 cells assessed as reduction in cell viability incubated for 48 hrs by Hoechst-33342 staining based cell counting method (Rvb > 25 microM)

[1] = molecular target: CDK9/cyclin T1 (Homo sapiens) (UniProt O60563+P50750); assay: Inhibition of human CDK9/CyclinT assessed as residual activity at 10 uM by ADP-Glo assay relative to control; format: protein-complex assay
[2] = molecular target: Cyclin-dependent kinase 5/CDK5 activator 1 (Homo sapiens) (UniProt Q00535+Q15078); assay: Inhibition of human CDK5/p25 assessed as residual activity at 10 uM by ADP-Glo assay relative to control; format: protein-complex assay
[3] = molecular target: Casein kinase I isoform epsilon (Homo sapiens) (UniProt P49674); assay: Inhibition of human CK1epsilon assessed as residual activity at 10 uM by ADP-Glo assay relative to control
[4] = molecular target: DYRK1A (dual specificity tyrosine-phosphorylation-regulated kinase 1A) (Rattus norvegicus, UniProt Q63470); assay: Inhibition of rat DYRK1A (1 to 499 residues) assessed as residual activity at 10 uM by ADP-Glo assay relative to control; details: rat DYRK1A enzyme (residues 1 to 499), read-out: Activity
[5] = molecular target: T1, Serine/threonine-protein kinase haspin (Homo sapiens) (UniProt Q8TF76); assay: Inhibition of human HASPIN assessed as residual activity at 10 uM by ADP-Glo assay relative to control
T1 sequence (whole entry): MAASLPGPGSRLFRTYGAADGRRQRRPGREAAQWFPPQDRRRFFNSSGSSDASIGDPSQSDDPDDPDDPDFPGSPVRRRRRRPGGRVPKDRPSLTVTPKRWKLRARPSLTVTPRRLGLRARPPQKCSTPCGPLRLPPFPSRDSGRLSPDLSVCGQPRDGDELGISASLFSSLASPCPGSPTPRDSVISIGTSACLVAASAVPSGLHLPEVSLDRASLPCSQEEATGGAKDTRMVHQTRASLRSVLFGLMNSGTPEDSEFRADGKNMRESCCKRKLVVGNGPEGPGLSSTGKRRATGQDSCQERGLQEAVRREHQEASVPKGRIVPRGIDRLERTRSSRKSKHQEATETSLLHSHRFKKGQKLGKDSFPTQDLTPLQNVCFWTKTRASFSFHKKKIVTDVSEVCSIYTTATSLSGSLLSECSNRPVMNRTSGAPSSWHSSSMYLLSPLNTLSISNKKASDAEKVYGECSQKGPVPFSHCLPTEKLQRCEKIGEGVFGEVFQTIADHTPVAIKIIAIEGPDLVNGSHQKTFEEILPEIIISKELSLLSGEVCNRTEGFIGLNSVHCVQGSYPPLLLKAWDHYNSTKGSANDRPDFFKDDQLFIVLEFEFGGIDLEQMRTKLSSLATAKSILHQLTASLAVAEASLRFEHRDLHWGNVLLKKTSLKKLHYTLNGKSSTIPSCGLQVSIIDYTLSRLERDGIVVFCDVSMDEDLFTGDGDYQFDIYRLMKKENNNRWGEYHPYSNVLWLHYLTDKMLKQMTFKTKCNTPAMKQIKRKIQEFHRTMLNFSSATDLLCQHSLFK

[6] = molecular target: Serine/threonine-protein kinase pim-1 (Homo sapiens) (UniProt P11309); assay: Inhibition of human PIM1 assessed as residual activity at 10 uM by ADP-Glo assay relative to control
[7] = molecular target: Dual specificity protein kinase CLK1 (Mus musculus) (UniProt P22518); assay: Inhibition of mouse CLK1 assessed as residual activity at 10 uM by ADP-Glo assay relative to control
[8] = molecular target: Glycogen synthase kinase-3 beta (Homo sapiens) (UniProt P49841); assay: Inhibition of human GSK3beta assessed as residual activity at 10 uM by ADP-Glo assay relative to control
MCF7 = assay: cells; details: Homo sapiens, MCF7, 48 h
NCI-H727 = assay: cells; details: Homo sapiens, NCI-H727, 48 h
Description: Cytotoxicity against human NCI-H727 cells assessed as reduction in cell viability incubated for 48 hrs by Hoechst-33342 staining based cell counting method (Rvb > 25 microM)

HCT-116 = assay: cells; details: Homo sapiens, HCT-116, 48 h
Description: Cytotoxicity against human HCT-116 cells assessed as reduction in cell viability incubated for 48 hrs by Hoechst-33342 staining based cell counting method (Rvb > 25 microM)

[9] = molecular target: Dual specificity tyrosine-phosphorylation-regulated kinase 1A (Rattus norvegicus, UniProt Q63470); assay: Inhibition of rat DYRK1A (1 to 499 residues) assessed as residual activity at 100 uM by ADP-Glo assay
[10] = molecular target: Dual specificity protein kinase CLK1 (Mus musculus) (UniProt P22518); assay: Inhibition of mouse CLK1 assessed as residual activity by ADP-Glo assay
[11] = molecular target: T2, Dual specificity tyrosine-phosphorylation-regulated kinase 2 (Homo sapiens, UniProt Q92630); assay: Inhibition of human DYRK2 at 100 uM by ADP-Glo assay
T2 sequence (Q92630 whole entry): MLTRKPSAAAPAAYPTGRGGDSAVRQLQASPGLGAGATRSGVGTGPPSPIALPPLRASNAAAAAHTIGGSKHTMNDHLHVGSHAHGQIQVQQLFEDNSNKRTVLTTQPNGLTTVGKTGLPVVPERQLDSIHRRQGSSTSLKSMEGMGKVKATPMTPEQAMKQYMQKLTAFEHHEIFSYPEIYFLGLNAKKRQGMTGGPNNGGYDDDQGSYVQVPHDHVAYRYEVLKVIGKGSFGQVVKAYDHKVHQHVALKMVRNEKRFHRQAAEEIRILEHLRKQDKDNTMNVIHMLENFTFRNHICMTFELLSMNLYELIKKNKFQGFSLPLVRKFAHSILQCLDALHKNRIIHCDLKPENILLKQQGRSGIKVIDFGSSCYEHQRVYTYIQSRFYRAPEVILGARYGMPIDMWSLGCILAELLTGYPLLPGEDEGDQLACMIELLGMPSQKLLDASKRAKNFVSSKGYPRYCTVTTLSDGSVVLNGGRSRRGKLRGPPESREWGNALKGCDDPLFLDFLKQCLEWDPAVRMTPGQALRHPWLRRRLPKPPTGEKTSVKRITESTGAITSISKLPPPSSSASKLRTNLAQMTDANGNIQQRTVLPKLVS

[12] = molecular target: Dual specificity tyrosine-phosphorylation-regulated kinase 1B (Homo sapiens, UniProt Q9Y463); assay: Inhibition of human DYRK1B at 100 uM by ADP-Glo assay
[13] = molecular target: Dual specificity tyrosine-phosphorylation-regulated kinase 1A (Homo sapiens, UniProt Q13627); assay: Inhibition of human DYRK1A at 100 uM by ADP-Glo assay

Chain of Serine/threonine-protein kinase pim-1 (Homo sapiens) (P11309 whole entry, looked up): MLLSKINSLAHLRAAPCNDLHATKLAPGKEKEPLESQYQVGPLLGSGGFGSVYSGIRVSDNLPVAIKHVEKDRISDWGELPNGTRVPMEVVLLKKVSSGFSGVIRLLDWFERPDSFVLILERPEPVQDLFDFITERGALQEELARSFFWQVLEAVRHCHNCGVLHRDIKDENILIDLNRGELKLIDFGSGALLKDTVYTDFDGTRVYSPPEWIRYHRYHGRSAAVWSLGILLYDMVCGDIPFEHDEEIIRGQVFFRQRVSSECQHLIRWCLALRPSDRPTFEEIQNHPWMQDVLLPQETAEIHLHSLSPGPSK
Chain of Dual specificity protein kinase CLK1 (Mus musculus) (P22518 whole entry, looked up): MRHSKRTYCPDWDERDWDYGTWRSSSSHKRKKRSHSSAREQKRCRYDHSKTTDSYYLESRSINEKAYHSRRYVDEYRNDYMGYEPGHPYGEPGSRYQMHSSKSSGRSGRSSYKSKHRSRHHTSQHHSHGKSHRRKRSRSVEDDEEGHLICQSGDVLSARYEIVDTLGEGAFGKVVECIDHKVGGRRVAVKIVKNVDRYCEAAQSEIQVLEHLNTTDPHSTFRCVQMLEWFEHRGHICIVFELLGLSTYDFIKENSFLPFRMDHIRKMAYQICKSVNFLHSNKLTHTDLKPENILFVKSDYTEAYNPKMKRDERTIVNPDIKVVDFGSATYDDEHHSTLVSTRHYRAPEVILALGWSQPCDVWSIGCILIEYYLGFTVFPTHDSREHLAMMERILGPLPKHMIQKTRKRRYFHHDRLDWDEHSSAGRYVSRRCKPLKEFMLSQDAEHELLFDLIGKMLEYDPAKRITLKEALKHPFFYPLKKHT
Chain of Casein kinase I isoform epsilon (Homo sapiens) (P49674 whole entry, looked up, the tested form may be a part, canonical isoform): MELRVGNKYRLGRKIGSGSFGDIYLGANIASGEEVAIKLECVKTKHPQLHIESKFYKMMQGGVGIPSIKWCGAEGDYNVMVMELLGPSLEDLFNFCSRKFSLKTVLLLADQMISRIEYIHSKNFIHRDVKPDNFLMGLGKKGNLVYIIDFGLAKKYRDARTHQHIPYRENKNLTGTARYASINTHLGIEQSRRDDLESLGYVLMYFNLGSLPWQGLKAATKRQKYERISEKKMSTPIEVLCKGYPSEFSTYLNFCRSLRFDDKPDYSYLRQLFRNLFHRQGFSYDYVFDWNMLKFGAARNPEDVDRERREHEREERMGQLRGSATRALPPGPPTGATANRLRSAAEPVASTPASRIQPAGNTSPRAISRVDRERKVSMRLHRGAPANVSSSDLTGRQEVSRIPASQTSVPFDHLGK
Chain of Glycogen synthase kinase-3 beta (Homo sapiens) (P49841 whole entry, looked up): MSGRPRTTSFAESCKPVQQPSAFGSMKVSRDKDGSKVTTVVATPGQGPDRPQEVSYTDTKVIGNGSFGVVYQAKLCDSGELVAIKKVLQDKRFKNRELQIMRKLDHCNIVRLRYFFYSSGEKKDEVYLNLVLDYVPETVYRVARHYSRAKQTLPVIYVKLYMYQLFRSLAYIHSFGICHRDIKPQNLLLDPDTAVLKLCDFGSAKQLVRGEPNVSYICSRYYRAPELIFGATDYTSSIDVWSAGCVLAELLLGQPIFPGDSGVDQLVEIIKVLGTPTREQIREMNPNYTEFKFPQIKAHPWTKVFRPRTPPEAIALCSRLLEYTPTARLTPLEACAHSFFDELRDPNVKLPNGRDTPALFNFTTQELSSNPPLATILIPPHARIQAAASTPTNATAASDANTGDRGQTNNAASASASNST
Chain of Cyclin-dependent kinase 5/CDK5 activator 1 (Homo sapiens) (Q00535 whole entry, canonical isoform): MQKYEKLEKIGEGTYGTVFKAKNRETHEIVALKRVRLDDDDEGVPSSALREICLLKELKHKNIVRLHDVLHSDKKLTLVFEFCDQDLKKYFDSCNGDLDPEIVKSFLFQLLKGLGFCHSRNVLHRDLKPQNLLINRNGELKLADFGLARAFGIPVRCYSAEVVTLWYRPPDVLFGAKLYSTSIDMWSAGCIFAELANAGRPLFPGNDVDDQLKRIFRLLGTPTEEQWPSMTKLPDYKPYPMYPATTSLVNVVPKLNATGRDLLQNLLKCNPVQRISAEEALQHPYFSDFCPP
Chain of Cyclin-dependent kinase 5/CDK5 activator 1 (Homo sapiens) (Q15078 99-307 partner limits assumed): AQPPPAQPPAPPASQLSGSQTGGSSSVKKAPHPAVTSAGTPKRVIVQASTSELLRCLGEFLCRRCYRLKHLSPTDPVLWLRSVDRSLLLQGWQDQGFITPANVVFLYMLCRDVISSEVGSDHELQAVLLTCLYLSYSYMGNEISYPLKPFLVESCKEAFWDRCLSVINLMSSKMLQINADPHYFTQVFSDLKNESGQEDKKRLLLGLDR
Chain of Dual specificity tyrosine-phosphorylation-regulated kinase 1B (Q9Y463 whole entry): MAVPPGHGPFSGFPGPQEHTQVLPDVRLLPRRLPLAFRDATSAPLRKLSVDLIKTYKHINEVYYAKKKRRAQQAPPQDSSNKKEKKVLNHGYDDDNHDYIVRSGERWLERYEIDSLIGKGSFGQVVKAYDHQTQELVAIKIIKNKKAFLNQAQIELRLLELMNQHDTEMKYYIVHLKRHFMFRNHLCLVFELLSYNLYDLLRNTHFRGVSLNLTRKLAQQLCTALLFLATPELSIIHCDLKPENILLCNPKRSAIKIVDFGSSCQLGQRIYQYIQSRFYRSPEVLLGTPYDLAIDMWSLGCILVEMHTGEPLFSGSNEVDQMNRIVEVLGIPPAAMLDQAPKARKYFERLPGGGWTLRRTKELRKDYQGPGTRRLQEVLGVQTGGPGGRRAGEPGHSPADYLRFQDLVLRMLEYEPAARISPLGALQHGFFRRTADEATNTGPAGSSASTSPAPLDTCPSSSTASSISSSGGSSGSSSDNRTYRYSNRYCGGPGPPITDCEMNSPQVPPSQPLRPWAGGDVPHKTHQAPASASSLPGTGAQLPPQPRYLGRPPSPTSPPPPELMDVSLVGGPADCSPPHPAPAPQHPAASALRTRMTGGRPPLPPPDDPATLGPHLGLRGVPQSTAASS

SMILES	IC50 (MDA-MB-231)	IC50 (Huh-7)	IC50 (Fibroblast)	IC50 (Caco-2)	IC50 (PC-3)	Activity [1]	Activity [2]	Activity [3]	activity at 10 µM [4]	Activity [5]	Activity [6]	Activity [7]	Activity [8]	IC50 (MCF7)	IC50 (NCI-H727)	also measured
COc1cccc2c1C(=O)c1c(O)c3c(c(O)c1C2=O)C[C@@](O)(C(=O)CO)C[C@@H]3O[C@H]1C[C@H](N)[C@H](O)[C@H](C)O1 [DOXORUBICIN]	0.01 µM	0.036 µM	0.015 µM	0.05 µM	0.06 µM											
Clc1cccc(Nc2ncc3cccc(OCc4cn(Cc5ccccc5)nn4)c3n2)c1						100%	87%	79%	81%	83%	84%	65%	48%			
Clc1cccc(Nc2ncc3cccc(OCc4cn(-c5cc(Cl)cc(Cl)c5)nn4)c3n2)c1	9 µM	7 µM	8 µM	8 µM	8 µM	64%	90%	55%	100%	77%	78%	81%	35%	5 µM	7 µM	IC50 (HCT-116): 8 µM
CC[C@H](CO)Nc1nc(NCc2ccccc2)c2ncn(C(C)C)c2n1 [SELICICLIB]		14 µM	6 µM											9 µM	28 µM	
O=[N+]([O-])c1ccc(Cn2cc(COc3cccc4cnc(Nc5cccc(Cl)c5)nc34)nn2)cc1						72%	90%	65%	88%	76%	77%	39%	60%			
Cc1ccc(-n2cc(COc3cccc4cnc(Nc5cccc(Cl)c5)nc34)nn2)c([N+](=O)[O-])c1						54%	84%			94%	81%	11%				inhibition (INH) [9]: Not Active; IC50 [10]: 0.12 µM; inhibition (INH) [11]: Not Active; inhibition (INH) [12]: Not Active; inhibition (INH) [13]: Not Active
Cc1ccc(-n2cc(COc3cccc4cnc(Nc5cccc(Cl)c5)nc34)nn2)cc1[N+](=O)[O-]						25%	40%	41%	74%	44%	45%	16%	14%			IC50 [10]: 3 µM
Clc1cccc(Nc2ncc3cccc(OCc4cn(Cc5c(Cl)cccc5Cl)nn4)c3n2)c1	21 µM	7 µM	14 µM	9 µM	7 µM	53%	94%	100%	75%	59%	97%	48%	58%	6 µM	5 µM	IC50 (HCT-116): 24 µM

— ChEMBL document CHEMBL4680342, “Discovery of DB18, a potent inhibitor of CLK kinases with a high selectivity against DYRK1A kinase” (Bioorg Med Chem, 2021)
